Results: patent publication US10913787B2, “Method of identifying musk compounds” (Firmenich SA, priority 2015, dated 2021)

Key:
[1] = test system: mouse Olfr96; assay: cell-based cAMP HTRF dose-response assay, tagged mouse Olfr96 in HEK293T cells
Source text: (§1) In a further embodiment, to complete the deorphanization process, the candidate OR genes are further expressed in vitro for confirmation of activity against the compounds used to isolate the olfactory sensory neurons and other structurally-related compounds of interest. The mouse receptors identified from isolated olfactory neurons that respond to both Musk compounds are modified at their N-terminus with short polypeptide sequences (e.g., Flag (SEQ ID NO: 6), Rho (SEQ ID NO: 8; 20 first amino acids of the bovine rhodopsin receptor), or Lucy (SEQ ID NO: 10) tags), transiently expressed in HEK 293T cells, and stimulated separately with Musk compounds to confirm their identity as bona fide Musk compound receptors. Co-expression of the human G alpha subunit Gαolf in this cell-based assay activates the Gs transduction pathway that leads to an internal cAMP increase upon binding to the appropriate ligand. Alternatively, co-expression of the human G alpha subunit Gals in the cell based assay activates the Gq transduction pathway that leads to an internal Ca^2+ increase upon binding to the appropriate ligand. The above process and the results obtained so far serve to validate the process for rapid and reliable identification of mammalian odorant receptors for Musk compounds.
Functional dose-response experiments were performed to evaluate the level of functional activity of the modified cell line. Using a cell-based assay, mouse Olfr96 was tested in an HEK293T cell line wherein the endogenous RTP1 gene has been activated and the odorant receptor chaperone was expressed. Flag-Rho-tagged receptor genes were co-transfected with the olfactory canonical G-protein Goff gene and were exposed to increasing concentrations of the Musk odorants Tonalide, Vulcanolide, and Muscone. Odorant-induced activity was detected by measuring the cAMP increase in the cytosol using an HTRF based kit (CisBio, cAMP dynamic 2 kit, 62AM4PEJ). […] In an additional repeat experiment using the same conditions, mouse Olfr96 and corresponding human ortholog OR11A1 were tested side by side in duplicate with a musk diversity set for specificity assessment.

[2] = molecular target: T1, human ortholog OR11A1 (Homo sapiens, UniProt Q9GZK7); assay: cell-based cAMP HTRF dose-response assay, tagged human OR11A1 in HEK293T cells; details: Lucy-Flag-Rho-tagged receptor, in duplicate, musk diversity set, FIG. 3
T1 construct: expressed in transfected cells
T1 sequence (Q9GZK7 1-315): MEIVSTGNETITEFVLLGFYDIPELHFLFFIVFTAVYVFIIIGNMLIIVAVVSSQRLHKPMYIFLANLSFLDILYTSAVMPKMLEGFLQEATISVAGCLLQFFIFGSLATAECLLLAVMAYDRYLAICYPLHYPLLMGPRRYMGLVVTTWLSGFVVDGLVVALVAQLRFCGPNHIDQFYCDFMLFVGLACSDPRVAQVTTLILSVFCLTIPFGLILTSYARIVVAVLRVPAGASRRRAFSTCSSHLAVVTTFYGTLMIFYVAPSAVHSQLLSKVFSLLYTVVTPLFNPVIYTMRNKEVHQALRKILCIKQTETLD
Source text: as §1, with “The above process and the results obtained so far serve to validate the process for rapid and reliable identification of mammalian odorant receptors for Musk compounds.” left out
Functional dose-response experiments were performed to evaluate the level of functional activity of the modified cell line. […] Odorant-induced activity was detected by measuring the cAMP increase in the cytosol using an HTRF based kit (CisBio, cAMP dynamic 2 kit, 62AM4PEJ). […]

[3] = repeat experiment, Lucy-Flag-Rho-tagged receptor, HEK293T, in duplicate, musk diversity set, FIG. 3
[4] = Flag-Rho-tagged receptor, HEK293T with activated RTP1, increasing concentrations of odorant, FIG. 2

| SMILES | dose-dependent increase of Olfr96 receptor activity (cAMP increase in the cytosol) [1, 3] | dose-dependent increase of Olfr96 receptor activity (cAMP increase in the cytosol) [1, 4] | dose-dependent increase of OR11A1 receptor activity (cAMP increase in the cytosol) [2] |
| --- | --- | --- | --- |
| CC1C(C)(C)C2=C(C(=O)CCC2)C1(C)C (stereo not shown) [Cashmeran] | dose-dependent increase |  |  |
| Cc1c([N+](=O)[O-])c(C)c([N+](=O)[O-])c(C(C)(C)C)c1[N+](=O)[O-] [Musk X] | dose-dependent increase |  |  |
| CC(=O)c1cc2c(cc1C)C(C)(C)C(C)CC2(C)C (stereo not shown) [Tonalide] | dose-dependent increase | dose-dependent increase |  |
| Cc1cc2c(cc1C=O)C(C)(C)[C@@H](C)[C@H](C)C2(C)C [Vulcanolide] | dose-dependent increase | dose-dependent increase | dose-dependent increase |
